Results from the NIST ThermoML archive (doi:10.1016/j.jct.2016.06.011).
± gives the expanded uncertainty stated by the source.

Test: wn = mass fraction of the nth substance listed
Conditions: 101.3 kPa, Liquid, Pycnometric method

## O=C1OC(=O)c2ccccc21 [isobenzofuran-1,3-dione] + C1COCCO1
283.15 K, w1 = 0.08506
  mass density: 1034 ± 14 kg/m3
293.15 K, w1 = 0.1354
  mass density: 1051 ± 14 kg/m3
303.15 K, w1 = 0.21
  mass density: 1061 ± 14 kg/m3

## O=Cc1ccc2ccccc2c1 [β-naphthaldehyde] + C1COCCO1
283.15 K, w1 = 0.3211
  mass density: 1049 ± 14 kg/m3
293.15 K, w1 = 0.4232
  mass density: 1056 ± 14 kg/m3
303.15 K, w1 = 0.5289
  mass density: 1063 ± 14 kg/m3
